From patent publication US4278595A, “Orally active MIF analogs with an effect on the central nervous system” (Vega Laboratories, Inc., priority 1979, dated 1981)
Where a SMILES comes first, the peptide text is derived from it. [ ]: non-standard residue; d: D form. pGlu = O=C1CC[C@@H](C(=O)O)N1

How the values were obtained:
Format in all cases: in vivo, rat
[1] = system: male Sprague-Dawley rats with unilateral 6-hydroxy-Dopamine lesion in the substantia nigra; experiment: Duration of L-DOPA-reversed rotational behavior in rats with unilateral 6-hydroxy-Dopamine lesion of the substantia nigra (third series)
Experimental: The MIF analogs were tested for "Parkinsonion" locomotor behavior response by three different test procedures. In the third series of tests, male Sprague-Dawley rats received a unilateral chemical lesion (by injection of 6-hydroxy-Dopamine) in the substantia nigra, which is followed by rotational movement. When L-DOPA is given i.p. (in two doses, 13 and 26 mg/kg) the direction of rotational movement is reversed, and the duration of the reversed rotational motion was measured in minutes. The same doses of L-DOPA were then given in the experimental groups in combination with 2 mg/kg of either MIF or the MIF analogs, all i.p., or by gastric tube in a dose of 4 mg/kg, and the duration, in minutes, of reversed rotational behavior was observed.

[2] = system: reserpinized male Long-Evans rats; experiment: Locomotor activity of reserpinized rats after intraventricular administration (first series); details: rats reserpinized i.p. 10 mg/kg
Experimental: (§1) The MIF analogs were tested for "Parkinsonion" locomotor behavior response by three different test procedures.
In the first series of tests, male Long-Evans rats were prepared with a cannula fixed from the exterior to the lateral ventricle for direct intraventricular administration. The rats were reserpinized i.p. (10 mg/kg), and then MIF or MIF analogs, were given directly into the CSF. Activity of the rats was measured in counts/10 minutes with a digital printout activity meter (Columbus Instruments, model PB 5244, Columbus, Ohio). The results of these tests are as follows

[3] = system: reserpinized male Long-Evans rats; experiment: L-DOPA potentiation: locomotor activity of reserpinized rats given agent i.p. with Carbi-DOPA and L-DOPA (second series); details: 2 mg/kg i.p. with 10 mg/kg Carbi-DOPA and 100 mg/kg L-DOPA
Experimental: as §1
In the second series of tests, male Long-Evans rats prepared and reserpinized as described for the first series, were treated i.p. with 2 mg/kg of MIF or MIF analog, 10 mg/kg of Carbi-DOPA, a competitive inhibitor of DOPA-decarboxylase (to prolong the L-DOPA effect), and 100 mg/kg of L-DOPA. The control group received the latter two substances, but no MIF or MIF analog. Activity of the rats was measured, in counts/10 minutes with a digital printout activity meter, at 15, 35, 55, 75, 95 and 105 minutes after injection.

[4] = Injection: L-DOPA i.p. (13 and 26 mg/kg) alone or in combination with 2 mg/kg MIF or analog i.p.
[5] = Oral: L-DOPA i.p. (13 and 26 mg/kg) alone or in combination with 4 mg/kg MIF or analog by gastric tube
[6] = 10 ng directly into the CSF (lateral ventricle)
[7] = 100 ng directly into the CSF (lateral ventricle)

Compound	Duration of Reversed Rotational Behavior [1, 4] [min]	Duration of Reversed Rotational Behavior [1, 5] [min]	% Increase in Activity, Counts/10 Minutes [2, 6]	% Increase in Activity, Counts/10 Minutes [2, 7]	% Increase in Activity, counts/10 min. ([3]; 15 min. after injection) [%]	% Increase in Activity, counts/10 min. ([3]; 35 min. after injection) [%]	% Increase in Activity, counts/10 min. ([3]; 55 min. after injection) [%]	% Increase in Activity, counts/10 min. ([3]; 75 min. after injection) [%]	% Increase in Activity, counts/10 min. ([3]; 95 min. after injection) [%]	% Increase in Activity, counts/10 min. ([3]; 105 min. after injection) [%]
N[C@@H](Cc1ccc(O)c(O)c1)C(=O)O [L-DOPA]	38 ± 3.4	38 ± 3.4	–	–	–	–	–	–	–	–
CC(C)C[C@H](NC(=O)[C@@H]1CCCN1)C(=O)NCC(N)=O [MIF, Pro--L--Leu--Gly--NH2, reference compound] (H-Pro-Leu-Gly-NH2)	55 ± 6.2	58 ± 5.3	No effect	No effect	–	–	–	–	–	–
CC(C)C[C@@H](NC(=O)[C@@H]1CCC(=O)N1)C(=O)NCC(N)=O [pGlu--D--Leu--Gly--NH2] ([pGlu]-[dL]-Gly-NH2)	96 ± 7.9	110 ± 9.3	240%	360%	126	538	2450	2036	1035	478
